According to patent US6617357B2, “Compounds and their use as PDE inhibitors” (SmithKline Beecham Corporation, priority 2001, dated 2003):

| SMILES | melting point [°C] |
| --- | --- |
| Cc1cc(C)c(S(=O)(=O)N(C)C)cc1[N+](=O)[O-] [Example 2, 2,4-Dimethyl-5-nitro(N,N-dimethyl)benzenesulfonamide] | 113 |
| COc1cc(C)c(S(=O)(=O)N(C)C)cc1[N+](=O)[O-] [Example 3, 4-Methoxy-2-methyl-5-nitro(N,N-dimethyl)benzenesulfonamide] | 130 to 132 |
